This assay has as its target T1, KHV TK (recombinant thymidine kinase) (Cyprinid herpesvirus 3, UniProt Q8B3A9).
T1 construct: gene CyHV3_ORF55; E. coli ER2566, chitin column
The experiment in a line: DE-81 filter paper radiometric kinase assay. The settings on record: ATP 10.0 mM, MgCl2 2.0 mM, Tris-Cl 140 mM, 37 °C; substrate 5-30 mM; labelled compound (methyl-3H). In kind it is biochemical.

As for `Cc1cn([C@H]2C[C@H](O)[C@@H](CO)O2)c(=O)[nH]c1=O` [methyl-3H Thymidine (dThd)], the “DE-81 filter paper radiometric kinase assay” value is “the enzyme is specifically active using methyl-^3H Thymidine (dThd)”.

The values are drawn from paper PMC1079851, “Cloning of the koi herpesvirus (KHV) gene encoding thymidine kinase and its use for a highly sensitive PCR based diagnosis” (BMC Microbiology, 2005).
